This passage reports IC50 and inhibition results from ChEMBL document CHEMBL1128650, “Non-peptide glycoprotein IIb/IIIa inhibitors. 6. Design and synthesis of rigid, centrally constrained non-peptide fibrinogen receptor antagonists” (Bioorg Med Chem Lett, 1995).

Assay [1] concerns the target Integrin alpha-IIb/beta-3 (Homo sapiens, UniProt P05106+P08514). As to the kind of experiment: Inhibition of fibrinogen binding to glycoprotein alpha IIb beta-3 integrin of activated platelets.
The next assay deals with Endothelial cell. As to the kind of experiment: Inhibition of human umbilical vein endothelial cell adhesion to fibrinogen, vitronectin and fibronectin coated surfaces;NI means no inhibition at 300 uM. Format: functional, cell-based.

Integrin alpha-IIb/beta-3, sequence (P05106 27-788 limits assumed): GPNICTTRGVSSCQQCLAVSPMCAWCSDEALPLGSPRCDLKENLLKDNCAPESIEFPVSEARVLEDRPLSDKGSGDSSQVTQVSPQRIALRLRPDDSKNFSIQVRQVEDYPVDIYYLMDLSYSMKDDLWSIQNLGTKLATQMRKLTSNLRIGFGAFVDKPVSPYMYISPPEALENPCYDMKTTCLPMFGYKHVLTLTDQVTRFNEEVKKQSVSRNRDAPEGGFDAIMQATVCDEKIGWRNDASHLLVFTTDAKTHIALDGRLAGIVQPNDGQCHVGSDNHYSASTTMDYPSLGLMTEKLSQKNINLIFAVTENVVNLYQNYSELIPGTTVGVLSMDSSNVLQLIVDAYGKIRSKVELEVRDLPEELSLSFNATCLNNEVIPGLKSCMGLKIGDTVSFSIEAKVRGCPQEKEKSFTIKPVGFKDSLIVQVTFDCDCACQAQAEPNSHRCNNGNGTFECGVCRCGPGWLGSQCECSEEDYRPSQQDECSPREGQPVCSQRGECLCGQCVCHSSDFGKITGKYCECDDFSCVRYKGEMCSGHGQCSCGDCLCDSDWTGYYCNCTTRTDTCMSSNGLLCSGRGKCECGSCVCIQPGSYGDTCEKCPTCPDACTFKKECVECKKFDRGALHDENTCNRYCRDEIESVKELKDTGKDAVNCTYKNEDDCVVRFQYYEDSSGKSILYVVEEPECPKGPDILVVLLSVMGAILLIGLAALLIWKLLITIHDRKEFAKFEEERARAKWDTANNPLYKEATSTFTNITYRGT
Integrin alpha-IIb/beta-3, sequence (P08514 32-887 limits assumed): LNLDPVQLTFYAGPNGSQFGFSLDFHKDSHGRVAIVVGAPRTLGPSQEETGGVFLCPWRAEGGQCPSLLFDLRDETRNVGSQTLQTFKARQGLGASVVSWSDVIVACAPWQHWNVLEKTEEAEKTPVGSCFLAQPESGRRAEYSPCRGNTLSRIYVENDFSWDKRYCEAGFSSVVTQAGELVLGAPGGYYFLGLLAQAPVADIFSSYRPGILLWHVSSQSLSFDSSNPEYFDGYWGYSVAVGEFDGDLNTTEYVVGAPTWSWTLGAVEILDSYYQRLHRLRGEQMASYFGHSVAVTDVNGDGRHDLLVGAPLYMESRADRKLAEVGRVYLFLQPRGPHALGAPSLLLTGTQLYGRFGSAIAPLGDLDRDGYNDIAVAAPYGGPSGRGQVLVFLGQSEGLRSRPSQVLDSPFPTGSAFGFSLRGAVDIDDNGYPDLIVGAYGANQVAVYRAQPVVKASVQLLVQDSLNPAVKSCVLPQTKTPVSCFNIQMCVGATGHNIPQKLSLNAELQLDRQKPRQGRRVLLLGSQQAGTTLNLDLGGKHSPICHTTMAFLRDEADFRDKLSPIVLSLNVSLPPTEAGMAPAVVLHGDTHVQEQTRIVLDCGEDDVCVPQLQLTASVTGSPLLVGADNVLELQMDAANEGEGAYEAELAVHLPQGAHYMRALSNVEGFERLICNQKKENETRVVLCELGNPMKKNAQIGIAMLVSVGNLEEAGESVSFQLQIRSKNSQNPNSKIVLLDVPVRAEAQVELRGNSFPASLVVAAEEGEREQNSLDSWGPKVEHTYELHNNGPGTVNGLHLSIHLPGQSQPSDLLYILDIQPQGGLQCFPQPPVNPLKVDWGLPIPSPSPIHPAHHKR
Integrin alpha-IIb/beta-3, sequence (P08514 891-1039 limits assumed): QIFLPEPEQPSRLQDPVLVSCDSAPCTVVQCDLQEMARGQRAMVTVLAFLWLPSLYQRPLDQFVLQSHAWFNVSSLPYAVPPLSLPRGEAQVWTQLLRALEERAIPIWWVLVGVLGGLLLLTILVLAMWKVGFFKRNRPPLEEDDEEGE

Compound `O=C(O)CCNC(=O)c1cc2n(n1)CCN(CCC1CCNCC1)C2=O` came in with an IC50 in assay [1] of 250 nM. In other words, the sub-micromolar range. Regarding `Cc1c(C(=O)NCCC(=O)O)cn2c1C(=O)N(CCC1CCNCC1)CC2`, the half-maximal inhibitory concentration (IC50) in assay [1] was 170 nM. Same read-out and setting: for `O=C(O)CNC(=O)c1cc2n(n1)CCN(CCCC1CCNCC1)C2=O` the value was 14000 nM; for `O=C(O)CCCNC(=O)c1cc2n(n1)CCN(CC1CCNCC1)C2=O`, 15000 nM. For `O=C(O)CCNC(=O)c1cc2n(c1)CCN(CCC1CCNCC1)C2=O`, in assay [1], the half-inhibitory concentration (IC50) amounted to 79 nM. Also, the inhibition entry in the assay on Endothelial cell is “No inhibition”. As to `O=C(O)CCNC(=O)c1cn2c(c1-c1ccccc1)C(=O)N(CCC1CCNCC1)CCC2`, the IC50 in assay [1] is more than 300000 nM. Same read-out and setting: for `O=C(O)CCN1CCn2nc(C(=O)NCCC3CCNCC3)cc2C1=O` the value was 31000 nM; for `O=C(O)CCNC(=O)c1cc2n(n1)CCN(CCCC1CCNCC1)C2=O`, 1300 nM. Compound `Cc1c(C(=O)NCCC(=O)O)cn2c1C(=O)N(CCC1CCNCC1)CCC2` displayed a half-maximal inhibitory concentration (IC50) in assay [1] of 510 nM. This IC50 lies about 2.5-fold lower than the previous one. As to `O=C(O)CCNC(=O)c1cc2n(n1)CCN(CC1CCNCC1)C2=O`, the IC50 in assay [1] turned out to be 45000 nM. Still for that read-out and setting: the value for `O=C(O)CCNC(=O)c1cc2n(c1)CCCN(CCC1CCNCC1)C2=O` was 170 nM.
